According to US20250302795A1, “SMALL MOLECULE COMPOUNDS WITH NEGATIVE REGULATORY EFFECTS ON Nrf2 SIGNALING [sequence] AND THEIR POTENTIAL APPLICATIONS” (Beijing Hebabiz Biotechnology Co., Inc., priority 2022, published 2025):

Tests used:
Assay type in all cases: in vivo, rat
[1] = Body weight of rats, high-fat diet non-alcoholic steatohepatitis model; settings: positive control group, in g (unit assumed)
Description: The normal control group was fed a standard diet for twelve weeks while the other groups were fed a high-fat diet consisting of 88% basal diet+10% lard+2% cholesterol for twelve weeks. After establishing the model, the drug groups received their respective treatments at a dosage of 10 ml/kg while the normal and model groups received an equal volume of 0.5% CMC-Na solution. The rats were provided with ad libitum access to water and food, while the animal chamber was maintained under controlled conditions of quietness, natural lighting, a temperature of 25±0.5° C., and a humidity level of 55±5%. The rats' body weights were measured once per week and recorded.
The rats were weighed weekly to monitor the fluctuations in body weight within each experimental group.

[2] = Body weight of rats, high-fat diet + CCl4 non-alcoholic steatohepatitis model; settings: positive control group, in g (unit assumed)
Description: (§1) The normal control group were fed a standard diet while the other groups were exclusively fed a high-fat diet consisting of 88% basal diet +10% lard +2% cholesterol for the initial six weeks. Starting from the seventh week, they received subcutaneous injections of a 30% CCl4 olive oil solution at a dosage of 0.2 ml/100 g behind their back twice per week for a total of four times. Once the model was successfully replicated, the corresponding drugs were administered orally (10 ml/kg) in each treatment group, and both the normal control group and the model group received equal volumes of a 0.5% CMC-Na solution once daily for ten consecutive weeks. Throughout the experimental period, the rats were provided with ad libitum access to food and water, while the animal chamber was maintained under controlled conditions of quietness, natural lighting, a temperature of 25±0.5° C., and a humidity level of 55±5%. The rats' body weights were measured once per week and recorded.
The weight changes of rats in each group were compared by conducting weekly weigh-ins after the experiment.

[3] = tested on: rats with nonalcoholic steatohepatitis induced by a high-fat diet and CCl4; test: Liver histopathology (HE, oil red, Masson staining), high-fat diet and CCl4 model; settings: positive control groups and NR218 high-, medium-, low-dose groups
Description: as §1
After collecting blood samples from the abdominal aorta of rats, the liver tissue was isolated and fixed in a 10% neutral formalin solution. Following standard procedures for embedding, sectioning, dewaxing, staining, clearing, and sealing, the liver tissues were subjected to HE (hematoxylin-eosin), Masson's trichrome, and oil red staining techniques respectively. […]

Which body weight ([1]; week 0 (pre-administration)) does the source give for COC(=O)c1cc(OC)c2c(c1-c1c(CO)cc(OC)c3c1OCO3)OCO2 [Bicyclol] here?
Its body weight is 195.09 ± 3.95.

What about the body weight ([1]; week 1 (pre-administration)) of the same compound?
The body weight was 254.99 ± 12.09.

What about the body weight ([1]; week 2 (pre-administration)) of the same compound?
The body weight was 307.37 ± 12.92.

What about the body weight ([1]; week 3 (pre-administration)) of the same compound?
The body weight was 343.86 ± 17.21.

What about the body weight ([1]; week 4 (pre-administration)) of the same compound?
Its body weight is 379.51 ± 22.29.

What about the body weight ([1]; week 5 (pre-administration)) of the same compound?
The body weight was 413.81 ± 26.94.

What about the body weight ([1]; week 6 (pre-administration)) of the same compound?
Its body weight is 444.77 ± 32.35.

And the body weight ([1]; week 7 (pre-administration))?
The body weight was 461.64 ± 35.88.

And the body weight ([1]; week 8 (pre-administration))?
The body weight was 493.67 ± 41.04.

And the body weight ([1]; week 9 (pre-administration))?
The body weight was 510.27 ± 41.17.

And the body weight ([1]; week 10 (pre-administration))?
The body weight was 526.93 ± 47.38.

And the body weight ([1]; week 11 (pre-administration))?
Its body weight is 541.47 ± 50.20.

What about the body weight ([1]; week 12 (pre-administration)) of the same compound?
The body weight was 550.05 ± 58.70.

And the body weight ([1]; week 13)?
Its body weight is 526.35 ± 68.66.

And the body weight ([1]; week 14)?
The body weight was 515.27 ± 58.62.

What about the body weight ([1]; week 15) of the same compound?
Its body weight is 519.07 ± 54.38.

And the body weight ([1]; week 16)?
Its body weight is 539.33 ± 58.40.

What about the body weight ([1]; week 17) of the same compound?
Its body weight is 562.79 ± 61.59.

What about the body weight ([1]; week 18) of the same compound?
Its body weight is 588.75 ± 70.94.

And the body weight ([1]; week 19)?
Its body weight is 593.71 ± 72.81.

What about the body weight ([1]; week 20) of the same compound?
The body weight was 586.53 ± 112.38.

And the body weight ([2]; week 1)?
Its body weight is 195.81 ± 5.12.

And the body weight ([2]; week 2)?
Its body weight is 252.07 ± 9.62.

What about the body weight ([2]; week 3) of the same compound?
The body weight was 293.51 ± 34.27.

And the body weight ([2]; week 4)?
The body weight was 366.45 ± 19.21.

And the body weight ([2]; week 5)?
Its body weight is 404.78 ± 18.71.

What about the body weight ([2]; week 6) of the same compound?
The body weight was 438.13 ± 24.81.

What about the body weight ([2]; week 7) of the same compound?
Its body weight is 471.76 ± 26.05.

And the body weight ([2]; week 8)?
Its body weight is 493.73 ± 28.93.

And the body weight ([2]; week 9)?
Its body weight is 500.11 ± 35.71.

And the body weight ([2]; week 10)?
Its body weight is 516.75 ± 35.02.

What about the body weight ([2]; week 11) of the same compound?
The body weight was 483.11 ± 32.67.

And the body weight ([2]; week 12)?
Its body weight is 486.89 ± 36.07.

And the body weight ([2]; week 13)?
The body weight was 508.69 ± 60.33.

What about the body weight ([2]; week 14) of the same compound?
Its body weight is 526.54 ± 51.97.

And the body weight ([2]; week 15)?
Its body weight is 536.32 ± 44.50.

What about the body weight ([2]; week 16) of the same compound?
Its body weight is 559.17 ± 38.21.

And the body weight ([2]; week 17)?
Its body weight is 573.81 ± 44.40.

What about the body weight ([2]; week 18) of the same compound?
Its body weight is 581.09 ± 46.08.

What about the “Oil red O staining of liver tissue (in words)” value [3] of the same compound?
Its value is “significantly ameliorated steatosis severity and reduced lipid droplet content”.
